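Cells were grown in 96-well plates and exposed to each compound for 48 hours at five concentrations; endpoints were interpolated linearly between bracketing concentrations, or set to the highest concentration if not reached. TGI denotes the concentration required for complete inhibition of growth.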
What was measured:
Assay in all cases: NCI-60 cell line screen, 48 h
UACC-257 melanoma = test system: UACC-257 melanoma
NCI-H522 lung = test system: NCI-H522 lung
SN12C renal = test system: SN12C renal
DMS 114 small cell lung = test system: DMS 114 small cell lung
786-0 renal = test system: 786-0 renal
DLD-1 colon = test system: DLD-1 colon
M19-MEL melanoma = test system: M19-MEL melanoma
EKVX NSCLC = test system: EKVX NSCLC
SNB-75 CNS = test system: SNB-75 CNS
OVCAR-3 ovarian = test system: OVCAR-3 ovarian
NCI-H23 lung = test system: NCI-H23 lung
HOP-62 NSCLC = test system: HOP-62 NSCLC
A498 renal = test system: A498 renal
SK-OV-3 ovarian = test system: SK-OV-3 ovarian
NCI-H460 lung = test system: NCI-H460 lung
SNB-78 CNS = test system: SNB-78 CNS
HT29 colon = test system: HT29 colon
RPMI-8226 leukemia = test system: RPMI-8226 leukemia
SF-268 CNS = test system: SF-268 CNS
OVCAR-8 ovarian = test system: OVCAR-8 ovarian
SK-MEL-5 melanoma = test system: SK-MEL-5 melanoma
K-562 leukemia = test system: K-562 leukemia
MOLT-4 leukemia = test system: MOLT-4 leukemia
HCT-116 colon = test system: HCT-116 colon
CAKI-1 renal = test system: CAKI-1 renal
KM12 colon = test system: KM12 colon
HOP-92 NSCLC = test system: HOP-92 NSCLC
OVCAR-5 ovarian = test system: OVCAR-5 ovarian
NCI-H226 lung = test system: NCI-H226 lung
SF-539 CNS = test system: SF-539 CNS
HCC-2998 colon = test system: HCC-2998 colon
HOP-18 NSCLC = test system: HOP-18 NSCLC
COLO 205 colon = test system: COLO 205 colon
DMS 273 small cell lung = test system: DMS 273 small cell lung
SW-620 colon = test system: SW-620 colon
LOX IMVI melanoma = test system: LOX IMVI melanoma
CCRF-CEM leukemia = test system: CCRF-CEM leukemia
LXFL 529 NSCLC = test system: LXFL 529 NSCLC
ACHN renal = test system: ACHN renal
HL-60(TB) leukemia = test system: HL-60(TB) leukemia
XF 498 CNS = test system: XF 498 CNS
SK-MEL-2 melanoma = test system: SK-MEL-2 melanoma
IGROV1 ovarian = test system: IGROV1 ovarian
OVCAR-4 ovarian = test system: OVCAR-4 ovarian
TK-10 renal = test system: TK-10 renal
SK-MEL-28 melanoma = test system: SK-MEL-28 melanoma
U251 CNS = test system: U251 CNS
A549 NSCLC = test system: A549 NSCLC
UACC-62 melanoma = test system: UACC-62 melanoma
SF-295 CNS = test system: SF-295 CNS
MALME-3M melanoma = test system: MALME-3M melanoma
M14 melanoma = test system: M14 melanoma
UO-31 renal = test system: UO-31 renal
SR leukemia = test system: SR leukemia
RXF 393 renal = test system: RXF 393 renal
SNB-19 CNS = test system: SNB-19 CNS
RXF-631 renal = test system: RXF-631 renal
KM20L2 colon = test system: KM20L2 colon
HCT-15 colon = test system: HCT-15 colon

## CC(C)CC12CC3CCC(CNC1=O)C32C (centres undefined)
UACC-257 melanoma
  TGI: > 100 µM
NCI-H522 lung
  TGI: > 100 µM
SN12C renal
  TGI: > 100 µM
DMS 114 small cell lung
  TGI: > 100 µM
786-0 renal
  TGI: > 100 µM
DLD-1 colon
  TGI: > 100 µM
M19-MEL melanoma
  TGI: > 100 µM
EKVX NSCLC
  TGI: > 100 µM
SNB-75 CNS
  TGI: > 100 µM
OVCAR-3 ovarian
  TGI: > 100 µM
NCI-H23 lung
  TGI: > 100 µM
HOP-62 NSCLC
  TGI: > 100 µM
A498 renal
  TGI: > 100 µM
SK-OV-3 ovarian
  TGI: > 100 µM
NCI-H460 lung
  TGI: > 100 µM
SNB-78 CNS
  TGI: > 100 µM
HT29 colon
  TGI: > 100 µM
RPMI-8226 leukemia
  TGI: > 100 µM
SF-268 CNS
  TGI: > 100 µM
OVCAR-8 ovarian
  TGI: > 100 µM
SK-MEL-5 melanoma
  TGI: > 100 µM
K-562 leukemia
  TGI: > 100 µM
MOLT-4 leukemia
  TGI: > 100 µM
HCT-116 colon
  TGI: > 100 µM
CAKI-1 renal
  TGI: > 100 µM
KM12 colon
  TGI: > 100 µM
HOP-92 NSCLC
  TGI: > 100 µM
OVCAR-5 ovarian
  TGI: > 100 µM
NCI-H226 lung
  TGI: > 100 µM
SF-539 CNS
  TGI: > 100 µM
HCC-2998 colon
  TGI: > 100 µM
HOP-18 NSCLC
  TGI: > 100 µM
COLO 205 colon
  TGI: > 100 µM
DMS 273 small cell lung
  TGI: > 100 µM
SW-620 colon
  TGI: > 100 µM
LOX IMVI melanoma
  TGI: > 100 µM
CCRF-CEM leukemia
  TGI: > 100 µM
LXFL 529 NSCLC
  TGI: > 100 µM
ACHN renal
  TGI: > 100 µM
HL-60(TB) leukemia
  TGI: > 100 µM
XF 498 CNS
  TGI: > 100 µM
SK-MEL-2 melanoma
  TGI: > 100 µM
IGROV1 ovarian
  TGI: > 100 µM
OVCAR-4 ovarian
  TGI: > 100 µM
TK-10 renal
  TGI: > 100 µM
SK-MEL-28 melanoma
  TGI: > 100 µM
U251 CNS
  TGI: > 100 µM
A549 NSCLC
  TGI: > 100 µM
UACC-62 melanoma
  TGI: > 100 µM
SF-295 CNS
  TGI: > 100 µM
MALME-3M melanoma
  TGI: > 100 µM
M14 melanoma
  TGI: > 100 µM
UO-31 renal
  TGI: > 100 µM
SR leukemia
  TGI: > 100 µM
RXF 393 renal
  TGI: > 100 µM
SNB-19 CNS
  TGI: > 100 µM

## Cc1ncc(CCl)c(CCl)c1O
NCI-H522 lung
  TGI: > 100 µM
SN12C renal
  TGI: > 100 µM
DMS 114 small cell lung
  TGI: > 100 µM
786-0 renal
  TGI: > 100 µM
DLD-1 colon
  TGI: > 100 µM
M19-MEL melanoma
  TGI: > 100 µM
SNB-75 CNS
  TGI: > 100 µM
NCI-H23 lung
  TGI: > 100 µM
HOP-62 NSCLC
  TGI: > 100 µM
A498 renal
  TGI: > 100 µM
SK-OV-3 ovarian
  TGI: > 100 µM
RPMI-8226 leukemia
  TGI: > 100 µM
SF-268 CNS
  TGI: > 100 µM
K-562 leukemia
  TGI: > 100 µM
MOLT-4 leukemia
  TGI: > 100 µM
HCT-116 colon
  TGI: > 100 µM
CAKI-1 renal
  TGI: > 100 µM
HOP-92 NSCLC
  TGI: > 100 µM
NCI-H226 lung
  TGI: > 100 µM
SF-539 CNS
  TGI: > 100 µM
HCC-2998 colon
  TGI: > 100 µM
COLO 205 colon
  TGI: > 100 µM
DMS 273 small cell lung
  TGI: > 100 µM
CCRF-CEM leukemia
  TGI: > 100 µM
LXFL 529 NSCLC
  TGI: > 100 µM
ACHN renal
  TGI: > 100 µM
HL-60(TB) leukemia
  TGI: > 100 µM
XF 498 CNS
  TGI: > 100 µM
SK-MEL-2 melanoma
  TGI: > 100 µM
IGROV1 ovarian
  TGI: > 100 µM
OVCAR-4 ovarian
  TGI: > 100 µM
SK-MEL-28 melanoma
  TGI: > 100 µM
UACC-62 melanoma
  TGI: > 100 µM
RXF-631 renal
  TGI: > 100 µM
MALME-3M melanoma
  TGI: > 100 µM
M14 melanoma
  TGI: > 100 µM
UO-31 renal
  TGI: > 100 µM
SR leukemia
  TGI: > 100 µM

## CC(NC(=O)C(=O)N/N=C1\C[C@@H](c2ccccc2)Nc2ccccc21)c1ccccc1 (some centres undefined)
UACC-257 melanoma
  TGI: > 100 µM
NCI-H522 lung
  TGI: > 100 µM
SN12C renal
  TGI: > 100 µM
DMS 114 small cell lung
  TGI: > 100 µM
786-0 renal
  TGI: > 100 µM
DLD-1 colon
  TGI: > 100 µM
M19-MEL melanoma
  TGI: > 100 µM
EKVX NSCLC
  TGI: > 100 µM
SNB-75 CNS
  TGI: > 100 µM
OVCAR-3 ovarian
  TGI: > 100 µM
NCI-H23 lung
  TGI: > 100 µM
HOP-62 NSCLC
  TGI: > 100 µM
NCI-H460 lung
  TGI: > 100 µM
SNB-78 CNS
  TGI: > 100 µM
HT29 colon
  TGI: > 100 µM
SF-268 CNS
  TGI: > 100 µM
OVCAR-8 ovarian
  TGI: > 100 µM
HCT-116 colon
  TGI: > 100 µM
CAKI-1 renal
  TGI: > 100 µM
KM12 colon
  TGI: > 100 µM
HOP-92 NSCLC
  TGI: > 100 µM
OVCAR-5 ovarian
  TGI: > 100 µM
KM20L2 colon
  TGI: > 100 µM
NCI-H226 lung
  TGI: > 100 µM
SF-539 CNS
  TGI: > 100 µM
HCC-2998 colon
  TGI: > 100 µM
COLO 205 colon
  TGI: > 100 µM
DMS 273 small cell lung
  TGI: > 100 µM
SW-620 colon
  TGI: > 100 µM
LOX IMVI melanoma
  TGI: > 100 µM
LXFL 529 NSCLC
  TGI: > 100 µM
ACHN renal
  TGI: > 100 µM
HL-60(TB) leukemia
  TGI: > 100 µM
XF 498 CNS
  TGI: > 100 µM
SK-MEL-2 melanoma
  TGI: > 100 µM
OVCAR-4 ovarian
  TGI: > 100 µM
TK-10 renal
  TGI: > 100 µM
SK-MEL-28 melanoma
  TGI: > 100 µM
U251 CNS
  TGI: > 100 µM
A549 NSCLC
  TGI: > 100 µM
SF-295 CNS
  TGI: > 100 µM
MALME-3M melanoma
  TGI: 99.6 µM
M14 melanoma
  TGI: > 100 µM
UO-31 renal
  TGI: > 100 µM
RXF 393 renal
  TGI: > 100 µM
SNB-19 CNS
  TGI: > 100 µM

## CC1CCCc2c1c1ccc3c(O)cccc3c1oc2=O (centres undefined)
UACC-257 melanoma
  TGI: > 100 µM
NCI-H522 lung
  TGI: 55.8 µM
SN12C renal
  TGI: > 100 µM
DMS 114 small cell lung
  TGI: 76.3 µM
786-0 renal
  TGI: 64.7 µM
DLD-1 colon
  TGI: > 100 µM
M19-MEL melanoma
  TGI: > 100 µM
EKVX NSCLC
  TGI: 85.9 µM
SNB-75 CNS
  TGI: 21.8 µM
OVCAR-3 ovarian
  TGI: > 100 µM
HCT-15 colon
  TGI: > 100 µM
NCI-H23 lung
  TGI: > 100 µM
HOP-62 NSCLC
  TGI: 54.1 µM
SK-OV-3 ovarian
  TGI: 61.6 µM
NCI-H460 lung
  TGI: > 100 µM
SNB-78 CNS
  TGI: > 100 µM
HT29 colon
  TGI: > 100 µM
RPMI-8226 leukemia
  TGI: > 100 µM
SF-268 CNS
  TGI: 70.8 µM
OVCAR-8 ovarian
  TGI: > 100 µM
K-562 leukemia
  TGI: > 100 µM
MOLT-4 leukemia
  TGI: > 100 µM
HCT-116 colon
  TGI: > 100 µM
CAKI-1 renal
  TGI: > 100 µM
KM12 colon
  TGI: > 100 µM
OVCAR-5 ovarian
  TGI: > 100 µM
KM20L2 colon
  TGI: > 100 µM
NCI-H226 lung
  TGI: > 100 µM
HCC-2998 colon
  TGI: > 100 µM
HOP-18 NSCLC
  TGI: > 100 µM
COLO 205 colon
  TGI: > 100 µM
DMS 273 small cell lung
  TGI: > 100 µM
SW-620 colon
  TGI: > 100 µM
LOX IMVI melanoma
  TGI: > 100 µM
CCRF-CEM leukemia
  TGI: > 100 µM
LXFL 529 NSCLC
  TGI: > 100 µM
ACHN renal
  TGI: > 100 µM
HL-60(TB) leukemia
  TGI: > 100 µM
XF 498 CNS
  TGI: > 100 µM
SK-MEL-2 melanoma
  TGI: > 100 µM
IGROV1 ovarian
  TGI: > 100 µM
OVCAR-4 ovarian
  TGI: 91.3 µM
TK-10 renal
  TGI: 71.3 µM
SK-MEL-28 melanoma
  TGI: > 100 µM
U251 CNS
  TGI: > 100 µM
A549 NSCLC
  TGI: > 100 µM
UACC-62 melanoma
  TGI: > 100 µM
SF-295 CNS
  TGI: 33.8 µM
MALME-3M melanoma
  TGI: > 100 µM
M14 melanoma
  TGI: > 100 µM
UO-31 renal
  TGI: > 100 µM
SR leukemia
  TGI: > 100 µM
RXF 393 renal
  TGI: 73.2 µM
SNB-19 CNS
  TGI: > 100 µM
